From patent US8846710B2, “Method of preferentially inducing the biosynthesis of interferon” (3M Innovative Properties Company, priority 2005, dated 2014) come the findings set out here.

The subject of one experiment is interferon (α) (IFN-α). Description: Cytokine induction in human cells: IFN-α secreted by PBMC into culture media (ELISA). It counts as cell-based. The note with it: Table 11; human PBMC; median where tested in more than one experiment. The essentials: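 Human donor PBMC, 2×10^6 cells/mL final in RPMI complete, treated 18–24 h at 37 °C, 5% CO2 with 3-fold dilutions (usually 30-0.014 μM), DMSO ≤1%. Supernatant IFN-α by multi-subtype sandwich ELISA, background-subtracted and reference-adjusted; minimum effective concentration = lowest concentration exceeding usually 20 pg/mL.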
For orientation: In an ELISA, binding on a coated surface is turned into a signal by an enzyme label.

Experiment [1] deals with tumor necrosis factor (α) (TNF-α). In words: Cytokine induction in human cells: TNF-α secreted by PBMC into culture media (ORIGEN M-Series immunoassay). The note with it: Table 11, human PBMC; for Minimum Effective Concentration TNF: median where tested in more than one experiment; for Maximal Response TNF: median, * = TNF below experimental background of 40 pg/mL. It counts as cell-based. The method, boiled down:
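Human donor PBMC (final 2×10^6 cells/mL) were incubated 18 to 24 hours at 37° C with compound, usually 30-0.014 μM in 3-fold steps, ≤1% DMSO. Supernatant TNF-α was measured by ORIGEN immunoassay, background-subtracted and reference-adjusted; minimum effective concentration was the lowest concentration exceeding a fixed cytokine threshold.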

Turning to `CCCc1nc2c(N)nc3ccccc3c2n1CC(C)(C)NC(=O)NC(C)C` [Analog 107], in the experiment on interferon (α) (IFN-α), the “Maximal Response IFN” value is reported as 1428 pg/mL and the “Minimum Effective Concentration IFN” value came out at 1.11 µM. In experiment [1], the “Minimum Effective Concentration TNF” value was 3.33 µM and the “Maximal Response TNF” value is given as 6363 pg/mL.

On to `CCOCc1nc2c(N)nc3ccccc3c2n1CC(C)(C)NC(=O)NC(C)C` [Analog 108], for which, in the experiment on interferon (α) (IFN-α), the “Maximal Response IFN” value was determined as 966 pg/mL and the “Minimum Effective Concentration IFN” value was found to be 0.37 µM. Further, in experiment [1], the “Minimum Effective Concentration TNF” value was 1.11 µM and the “Maximal Response TNF” value was 10587 pg/mL.

Turning to `COCCc1nc2c(N)nc3ccccc3c2n1CCCNS(=O)(=O)c1ccc(C)cc1` [Analog 109], in the experiment with interferon (α) (IFN-α), the “Maximal Response IFN” value turned out to be 638 pg/mL and the “Minimum Effective Concentration IFN” value amounted to 0.04 µM. Moreover, in experiment [1], the “Minimum Effective Concentration TNF” value came out at 0.37 µM and the “Maximal Response TNF” value was 6169 pg/mL.

With `COCCc1nc2c(N)nc3ccccc3c2n1CCCNC(=O)c1cc2ccccc2cn1` [Analog 110], in the experiment with interferon (α) (IFN-α), the “Maximal Response IFN” value is 647 pg/mL and the “Minimum Effective Concentration IFN” value worked out at 0.12 µM. In experiment [1], the “Minimum Effective Concentration TNF” value stood at 1.11 µM and the “Maximal Response TNF” value is on record as 6169 pg/mL.

`CCOCc1nc2c(N)nc3ccccc3c2n1CC(C)(C)N` [Analog 111]: in the experiment with interferon (α) (IFN-α), the “Maximal Response IFN” value is 656 pg/mL and the “Minimum Effective Concentration IFN” value is 0.12 µM. For the same compound, in experiment [1], the “Minimum Effective Concentration TNF” value came out at 0.37 µM and the “Maximal Response TNF” value was determined as 11475 pg/mL.

As to `COCCc1nc2c(N)nc3ccccc3c2n1CCCCNC(=O)c1nccc2ccccc12` [Analog 112], in the experiment with interferon (α) (IFN-α), the “Maximal Response IFN” value is recorded as 2127 pg/mL and the “Minimum Effective Concentration IFN” value is 0.014 µM. Also, in experiment [1], the “Minimum Effective Concentration TNF” value stood at 0.04 µM and the “Maximal Response TNF” value worked out at 1462 pg/mL.

`COCCc1nc2c(N)nc3ccccc3c2n1CCCCNS(=O)(=O)c1ccc(F)cc1` [Analog 113]: in the experiment with interferon (α) (IFN-α), the “Maximal Response IFN” value came out at 6032 pg/mL and the “Minimum Effective Concentration IFN” value came to 0.014 µM. In addition, in experiment [1], the “Minimum Effective Concentration TNF” value worked out at 0.04 µM and the “Maximal Response TNF” value was 3786 pg/mL.

On to `COCCc1nc2c(N)nc3ccccc3c2n1CCCCN` [Analog 114], for which, in the experiment with interferon (α) (IFN-α), the “Maximal Response IFN” value came out at 127231 pg/mL and the “Minimum Effective Concentration IFN” value came to 0.04 µM. Moreover, in experiment [1], the “Minimum Effective Concentration TNF” value came to 0.37 µM and the “Maximal Response TNF” value came out at 724 pg/mL.

With `COCCc1nc2c(N)nc3ccccc3c2n1CCCCNC(=O)c1cnc2ccccc2c1` [Analog 115], in the experiment with interferon (α) (IFN-α), the “Maximal Response IFN” value amounted to 7545 pg/mL and the “Minimum Effective Concentration IFN” value is 0.014 µM. Further, in experiment [1], the “Minimum Effective Concentration TNF” value is 0.04 µM and the “Maximal Response TNF” value amounted to 9340 pg/mL.

Regarding `COCCc1nc2c(N)nc3ccccc3c2n1CCCCNC(=O)c1cnc2ccccc2n1` [Analog 116], in the experiment on interferon (α) (IFN-α), the “Maximal Response IFN” value is reported as 1129 pg/mL and the “Minimum Effective Concentration IFN” value was found to be 0.014 µM. For the same compound, in experiment [1], the “Minimum Effective Concentration TNF” value was determined as 0.04 µM and the “Maximal Response TNF” value is 7261 pg/mL.

With `COCCc1nc2c(N)nc3ccccc3c2n1CCCCCCCCNC(=O)Nc1ccccc1` [Analog 117], in the experiment with interferon (α) (IFN-α), the “Maximal Response IFN” value came out at 1257 pg/mL and the “Minimum Effective Concentration IFN” value worked out at 0.014 µM. In addition, in experiment [1], the “Minimum Effective Concentration TNF” value stood at 0.12 µM and the “Maximal Response TNF” value came to 1372 pg/mL.

Turning to `COCCc1nc2c(N)nc3ccccc3c2n1CCCCCCCCNS(C)(=O)=O` [Analog 118], in the experiment on interferon (α) (IFN-α), the “Maximal Response IFN” value is on record as 1914 pg/mL and the “Minimum Effective Concentration IFN” value worked out at 0.014 µM. In experiment [1], the “Minimum Effective Concentration TNF” value came to 0.014 µM and the “Maximal Response TNF” value was 1853 pg/mL.

Turning to `COCCc1nc2c(N)nc3ccccc3c2n1CCCCCCCCNC(=O)c1ccccc1` [Analog 119], in the experiment on interferon (α) (IFN-α), the “Maximal Response IFN” value came out at 1584 pg/mL and the “Minimum Effective Concentration IFN” value worked out at 0.014 µM. Also, in experiment [1], the “Minimum Effective Concentration TNF” value turned out to be 0.014 µM and the “Maximal Response TNF” value amounted to 1995 pg/mL.
